Laboratory results as given in paper PMC6934184, “Selective DNA-PKcs inhibition extends the therapeutic index of localized radiotherapy and chemotherapy” (The Journal of Clinical Investigation, 2019).

Molecular target: T1, AMPK (A1/B2/G1) (Homo sapiens, UniProt Q13131)
T1 construct: purchased Thermo Fisher Scientific (Life Technologies) SelectScreen
Experiment: SelectScreen LanthaScreen
Assay type: binding
Settings: read-out: % displacement
Outline: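 NU5455 was profiled across the SelectScreen Broad panel of kinase activity and binding assays. Z'LYTE reactions such as CSF1R ran at apparent Km ATP, while the Adapta CAMK1 assay used ATP listed as 10. Values are given as percent.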

T1 sequence (Q13131 whole entry): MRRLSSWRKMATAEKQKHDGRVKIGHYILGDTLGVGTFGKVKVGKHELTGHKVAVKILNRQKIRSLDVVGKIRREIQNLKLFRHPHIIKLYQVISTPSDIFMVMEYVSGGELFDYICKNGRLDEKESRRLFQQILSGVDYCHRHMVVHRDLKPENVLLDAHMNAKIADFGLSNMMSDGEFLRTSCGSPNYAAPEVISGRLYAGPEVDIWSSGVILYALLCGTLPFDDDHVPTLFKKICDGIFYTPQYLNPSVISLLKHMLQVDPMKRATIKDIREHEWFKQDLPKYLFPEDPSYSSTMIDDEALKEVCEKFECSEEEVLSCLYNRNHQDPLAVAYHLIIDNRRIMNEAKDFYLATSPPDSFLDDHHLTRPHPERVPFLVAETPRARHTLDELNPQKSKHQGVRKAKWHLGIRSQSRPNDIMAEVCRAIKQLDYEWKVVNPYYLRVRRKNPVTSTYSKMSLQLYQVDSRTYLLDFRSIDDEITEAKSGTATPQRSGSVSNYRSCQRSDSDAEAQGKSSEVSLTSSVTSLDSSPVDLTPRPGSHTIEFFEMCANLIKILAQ
T1 sequence (O43741 whole entry partner): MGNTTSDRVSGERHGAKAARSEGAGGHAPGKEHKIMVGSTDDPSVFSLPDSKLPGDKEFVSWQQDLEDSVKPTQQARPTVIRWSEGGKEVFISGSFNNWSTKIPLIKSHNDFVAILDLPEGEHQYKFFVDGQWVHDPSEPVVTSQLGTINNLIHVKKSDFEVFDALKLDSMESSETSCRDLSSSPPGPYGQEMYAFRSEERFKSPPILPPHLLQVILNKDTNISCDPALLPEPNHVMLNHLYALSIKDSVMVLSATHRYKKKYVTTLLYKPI
T1 sequence (P54619 whole entry partner): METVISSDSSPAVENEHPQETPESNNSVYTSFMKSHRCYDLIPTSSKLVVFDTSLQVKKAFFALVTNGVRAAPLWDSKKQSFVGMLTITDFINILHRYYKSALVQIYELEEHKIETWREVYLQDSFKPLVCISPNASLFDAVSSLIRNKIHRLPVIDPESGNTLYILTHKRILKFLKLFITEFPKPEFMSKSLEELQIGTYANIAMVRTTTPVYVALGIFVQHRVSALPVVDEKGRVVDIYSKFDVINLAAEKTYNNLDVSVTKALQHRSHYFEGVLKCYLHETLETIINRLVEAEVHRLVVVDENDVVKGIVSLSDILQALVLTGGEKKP

Structure (SMILES): CN(C(=O)CN1CCOCC1)c1ccc2sc3c(-c4cccc5c(=O)cc(N6CC7CCC(C6)O7)oc45)cccc3c2c1 [NU5455]
- inhibition at 1 µM: 0.9%
